Assay results published in patent US12139729B2, “Neurodegenerative disorders” (priority 2013, dated 2024).
Like-named read-outs stand apart in the source and are kept apart here. No end group written: not given here.

Experiments:
[1] = biological target: allosteric site on the α7 nicotinic-receptor (Rattus norvegicus, UniProt Q05941); assay: Binding affinity for the allosteric site of the α7 nicotinic-receptor, using tests for viability
PC12 cells = assay: Sulforhodamine B (SRB) cell viability assay; format: cell-based
Description: (§1) Wild-type PC12 cell were provided by Sigma-Aldrich (St. Louis, MO). The culture was routinely plated in 100 mm dishes (Corning) coated with collagen (2 μg/cm^2) and maintained in growth medium with Minimum Essential Medium Eagle (MEM) supplemented with heat-inactivated 10% horse serum (HS) and 5% foetal bovine serum (FBS), 10 mM HEPES, 2 mM L-Glutamine and 1:400 Penicillin/streptomycin solution. Cells were maintained at 37° C. in a humidified atmosphere 5% CO2 and the medium was replaced every 2 days. For splitting, cells were dislodged from the dish using a pipette with medium, with a portion of these replated onto new cultured dishes. Cells were used between passages 12 and 25.
(§2) The cell viability assay used was the sulforhodamine B (SRB) colorimetric assay for toxicity screening. The day before of the experiment cells were seeded onto collagen-coated 96-well plates in a concentration of 40,000 cells/well. Cell concentration was determined by the Fuchs-Rosenthal chamber. […] After treatment, medium was replaced and cells were fixed by adding 100 μl of 10% Trichloroacetic Acid (TCA) for 1 h at 4° C. Thereafter, cells were washed with H2O and stained with 100 μl of a 0.057% SRB solution in 1% Acetic acid (HAc) for 30 minutes at room temperature. After staining cells were washed with 1% HAc for removing the excess of SRB and then incubated with 200 μl of 10 mM Tris base (pH 10.5) and shake it for 5 minutes to solubilise the protein-bound dye. Measurement of the absorbance took place in a VMax Kinetic Microplate Reader (Molecular Devices) at 490 nm.

[2] = cited from earlier work
[3] = biological target: T1, α7nAChR (the α7 nicotinic acetylcholine receptor), allosteric site (Rattus norvegicus, UniProt Q05941); assay: [3H] Ivermectin binding assay on PC12 cell membranes
T1 construct: [3H]; host or cells: wild-type PC12 cells
T1 sequence (Q05941 23-502): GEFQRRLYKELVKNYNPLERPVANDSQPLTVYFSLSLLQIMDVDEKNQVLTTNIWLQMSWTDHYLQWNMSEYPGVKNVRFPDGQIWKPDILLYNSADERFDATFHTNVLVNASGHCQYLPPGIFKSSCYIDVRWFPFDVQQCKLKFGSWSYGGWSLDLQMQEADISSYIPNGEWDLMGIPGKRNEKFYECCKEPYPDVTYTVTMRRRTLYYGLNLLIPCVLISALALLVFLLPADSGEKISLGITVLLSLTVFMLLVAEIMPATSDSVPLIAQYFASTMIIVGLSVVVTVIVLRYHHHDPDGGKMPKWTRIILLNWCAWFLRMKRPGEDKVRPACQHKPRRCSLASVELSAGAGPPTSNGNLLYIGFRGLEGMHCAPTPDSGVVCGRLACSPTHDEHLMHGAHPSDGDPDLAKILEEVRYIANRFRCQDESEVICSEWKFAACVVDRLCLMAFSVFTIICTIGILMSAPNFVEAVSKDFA
Description: PC12 membranes where obtained to perform binding assays. PC12 cells were grown until confluence on 100 mm plates. Growth medium was removed and ice-cold 50 mM Tris-HCl buffer (pH 7.4) containing 4.5 μg/μ1 aprotinin and 0.1 mM phenylmethylsulphonylfluoride (PMSF) were added. Cells were mechanically detached and pelleted by centrifugation (1040×g) for 4 minutes at 4° C. Pellets were homogenized with a Polytron and centrifuged (13000×g) for 20 minutes at 4° C. The pellets were resuspended in fresh buffer and incubated at 37° C. for 10 minutes to remove endogenous neurotransmitters. The samples were subsequently re-centrifuged. The final pellet was resuspended in buffer and the protein concentration determined using the Bradford Reagent (Sigma-Aldrich, St. Louis, MO). The cell membrane preparation was stored at −80° C.
For the binding with PC12 membranes, each incubation was performed in polystyrene tube (VWR International Ltd; Leicestershire, UK) containing 0.25 ml of membranes diluted in Tris-HCl 50 mM buffer (containing 50 μg of PC12 membranes) with 5 nM [3H] […] Thereafter, samples were filtered through Brandel GB glass fibre filters (MD, USA); pre-soaked in 0.5% polyethylenemine by a Harvester (Brandel; MD, USA). Tubes were washed 3 times with ice cold 50 mM Tris-HCl buffer. Radioactivity in the tubes was counted by scintillation spectrometry using a 300 SL Liquid scintillation counter (Lablogic Systems Limited, UK). Specific binding was determined by subtracting the non-specific (cells treated with Ivermectin 30 μM) value to all the tubes.

[4] = Sulforhodamine B (SRB) cell viability assay; format: cell-based; conditions: 10 μM, 1 hour, PC12; read-out: cell viability, peptide alone
Description: as §1, §2

allosteric site on the α7 nicotinic-receptor, sequence (Q05941 23-502): as above

Row | Compound | binding affinity for the allosteric site on the α7 nicotinic-receptor [1] | binding affinity for the allosteric site on the α7 nicotinic-receptor ([1]; listed as galanthamine) | affinity (Table 3 feature) ([1]; ✓ = Dream Drug feature 'Nanomolar affinity') | dose that blocks β-Amyloid (Table 3 feature) (PC12 cells; 'high doses') | minimum effective concentration against β-Amyloid (10 μM) on cell viability (PC12 cells; PC12, FIG. 8) | bioavailability periphery (Table 3 feature) [2] | % [3H] Ivermectin binding (Mean ± SEM) ([3]; 100 nM competitor, Table 2, N = 6) | % [3H] Ivermectin binding (Mean ± SEM) ([3]; 200 nM competitor, Table 2) | % [3H] Ivermectin binding (Mean ± SEM) ([3]; 500 nM competitor, Table 2) | % [3H] Ivermectin binding (Mean ± SEM) ([3]; 700 nM competitor, Table 2) | % [3H] Ivermectin binding (Mean ± SEM) ([3]; 1 μM competitor, Table 2) | % [3H] Ivermectin binding (Mean ± SEM) ([3]; 2 μM competitor, Table 2) | viability at 10 µM [4] | % [3H] Ivermectin binding (Mean ± SEM) ([3]; 1 nM competitor, Table 1) | % [3H] Ivermectin binding (Mean ± SEM) ([3]; 10 nM competitor, Table 1) | % [3H] Ivermectin binding (Mean ± SEM) ([3]; 100 nM competitor, Table 1) | % [3H] Ivermectin binding (Mean ± SEM) ([3]; 1 μM competitor, Table 1) | % [3H] Ivermectin binding (Mean ± SEM) ([3]; 5 μM competitor, Table 1)
1 | COc1ccc2c3c1O[C@H]1C[C@@H](O)C=C[C@@]31CCN(C)C2 [Galanthamine] | low affinity | 10 µM | Micromolar affinity | doses (0.1 μM) | 100 nM | High bioavailability | 100.00 ± 11.48% | 97.86 ± 1.40% | 90.96 ± 1.87% | 69.68 ± 9.87% | 67.17 ± 6.64% | 66.32 ± 4.29% | – | – | – | – | – | –
2 | AEFHRWSSYMVHWK [T14] | 0.005 µM | – | – | – | – | – | – | – | – | – | – | – | 83 ± 5.38% | 100 ± 9.91% | 90.92 ± 2.38% | 88.92 ± 3.82% | 85.17 ± 3.03% | 85.36 ± 3.96%
